From US20080021045A1, “7-Amino-5-Halopyrazolopyrimidines with a Fungicidal Action” (BAYER CROPSCIENCE AKTIENGESELLSCHSFT, priority 2003, published 2008) come the findings set out here.

This data set is described as follows: logP determination by HPLC (EEC Directive 79/831 Annex V. A8). In kind it is physicochemical. Particulars: gradient method, acetonitrile/0.1% aqueous phosphoric acid.

By chromatographic logP is commonly meant a lipophilicity value derived from retention on a column. Higher therefore signals a more lipophilic compound. `CCC(C)c1c(Cl)nc2c(C=O)cnn2c1NC(C)C(C)C` (stereo not drawn) [Example 2, 3-formyl-5-chloro-6-(sec-butyl)-7-(3-methyl-2-butylamino)pyrazolo[1,5-a]pyrimidine] yielded a chromatographic logP of 4.17.

The molecule `CCC(C)c1c(Cl)nc2c(C#N)cnn2c1NC(C)C(C)C` (stereo not drawn) [Example 1, 3-cyano-5-chloro-6-(sec-butyl)-7-[(S+)-3-methyl-2-butylamino]pyrazolo[1,5-a]pyrimidine] displayed a chromatographic logP of 4.59.

`CCC(C)c1c(Cl)nc2c(C#N)cnn2c1Cl` (stereo not drawn) [Example 30, 3-cyano-5,7-dichloro-6-(sec-butyl)pyrazolo[1,5-a]pyrimidine] displayed a chromatographic logP of 3.27.
